These results are taken from patent US5610139A, “Antimicrobial compositions and pharmaceutical preparations thereof” (Seikagaku Corporation, priority 1992, dated 1997).

Values after ≈ are worked out from the molar mass of the structure shown. Where two headings read alike, the source gives them in different places. Where a SMILES comes first, the peptide text is derived from it. Bridges are numbered along the chain shown (N, C = ends).

One may read the MIC as the lowest concentration that inhibits growth of the organism. Lower therefore signals inhibition by little substance.

The subject of assay [1] is MRSA No. 3-50 strain. Type of assay: cell-based, Staphylococcus aureus. The following applies: for growth: MRSA No. 3-50; for MIC, single administration of the peptide: MRSA. From the text: Synergistic antimicrobial activities by the combinations of tachyplesin I and β-lactam antibiotics or chloramphenicol antibiotics against above mentioned clinically isolated MRSAs were examined and the results against MRSA No. 3-50 strain are shown in the following Tables.

In assay [2] the test system is 55 strains of clinically isolated MRSA. Type of assay: cell-based, Staphylococcus aureus. The source says:
The MRSAs used for the experiments shown below were isolated as follows. Specimens of urine, sputa and pus of hospitalized patients in Nagoya University, School of Medicine Hospital were smeared and cultured on blood agar medium. Staphylococcus aureus was isolated and identified from the grown colonies. Their sensitivity were examined using BBL test disks containing one μg of oxacillin (BBL Microbiology System Co., Ltd.) and strains showing inhibitory zone of 10 mm or less were classified as MRSA. A total of 55 strains of MRSA Nos. 170, 199, 3-50, 3-53 and so forth were isolated. Their sensitivity were confirmed by an agar plate dilution method using Mueller-Hinton agar medium of BBL (BBL Microbiology System Co., Ltd.) containing 100, 50, 25, 12.5, 6.3, 3.2, 1.6 or 0.8 μg/ml of methicillin (Banyu Pharmaceutical Co., Ltd.).
MRSAs obtained by the preceding method were cultured in L medium (1% bactotrypton, 0.5% yeast extract, 0.5% NaCl, pH 7.2) overnight and diluted 40-fold with a phosphate buffered saline solution (PBS).
Separately, tachyplesin I was diluted by 2-fold method using M9 medium (a synthetic medium added with 1% casamino acid) or T broth (0.5% bactotrypton and 0.5% NaCl) to give concentrations of 200-0.4 μg/ml and poured in a 96 well microplate at 100 μl/well each.
The 40-fold diluted bacterial solution was further diluted 10-fold with the M9 medium or T broth and poured 100 μl each to the above wells and the combined solution was mixed to give final concentration of 100-0.2 μg/ml of tachyplesin I. The bacterial concentration was made approximately 10^6 cfu/well (cfu=colony forming unit).
The resultant mixed solutions of bacterial and tachyplesin I solutions were cultured overnight (18 hrs.) at 37° C. The growth of bacteria was determined by the turbidity of the medium and the minimum concentration required to inhibit their growth was used as the minimum inhibitory concentration (MIC).
MICs of various antimicrobial peptides derived from horseshoe crab against 55 strains of clinically isolated MRSA were determined by a similar method to that shown above.

For assay [3], the system named is artificial vesicles using inner membrane of E. coli. In words: Action on membrane potential in artificial vesicles in vitro. Format: biochemical. From the text: The antimicrobial mechanisms of the peptides such as tachyplesins against MRSAs are supposed to be similar to those of against Escherichia coil and Salmonella spp. There is an energy producing mechanism by oxidative phosphorylation in cytoplasmic membrane of bacteria, which couples with membrane potential. The action mechanism against E. coli was modeled in artificial vesicles using inner membrane of E. coli and the action of tachyplesin I was investigated in vitro.

Where [4] appears, read: antibiotic 10 μg/ml alone (TAC-I 0 μg/ml).
The mark [5] stands for this setting: antibiotic 20 μg/ml alone (TAC-I 0 μg/ml).
The mark [6] stands for this setting: against 55 strains of clinically isolated MRSA.
Throughout, for growth: key: + shows growth; - shows no growth.

Turning to `CC1(C)S[C@@H]2[C@H](NC(=O)[C@H](N)c3ccccc3)C(=O)N2[C@H]1C(=O)O` [ABPC, Ampicillin], the growth entry in assay [1] (setting [4]) and in assay [1] (setting [5]) was “+” throughout.
`CC[C@H](C)[C@@H]1NC(=O)CNC(=O)[C@H](CCCNC(=N)N)NC(=O)[C@H](Cc2ccc(O)cc2)NC(=O)[C@@H]2CSSC[C@H](NC1=O)C(=O)N[C@@H](Cc1ccc(O)cc1)C(=O)N[C@@H](CCCNC(=N)N)C(=O)N[C@@H](CCCCN)C(=O)N[C@H](C(=O)N[C@@H](CCCNC(=N)N)C(N)=O)CSSC[C@H](NC(=O)[C@H](Cc1c[nH]c3ccccc13)NC(=O)[C@@H](N)CCCNC(=N)N)C(=O)N[C@@H](Cc1ccccc1)C(=O)N[C@@H](CCCNC(=N)N)C(=O)N[C@@H](C(C)C)C(=O)N2` [Tachyplesin II] (H-RWCFRVCYRGICYRKCR-NH2; disulfide 3-16, 7-12; N-terminus and C-terminus assumed): the “MIC” value in assay [2] (setting [6]) came to 3.2 µg/mL (≈ 1.41 µM).
Take `CC[C@H](C)[C@@H]1NC(=O)CNC(=O)[C@H](CCCNC(=N)N)NC(=O)[C@H](Cc2ccc(O)cc2)NC(=O)[C@@H]2CSSC[C@H](NC1=O)C(=O)N[C@@H](Cc1ccc(O)cc1)C(=O)N[C@@H](CCCNC(=N)N)C(=O)N[C@@H](CCCNC(=N)N)C(=O)N[C@H](C(=O)N[C@@H](CCCNC(=N)N)C(N)=O)CSSC[C@H](NC(=O)[C@H](Cc1c[nH]c3ccccc13)NC(=O)[C@@H](N)CCCCN)C(=O)N[C@@H](Cc1ccccc1)C(=O)N[C@@H](CCCNC(=N)N)C(=O)N[C@@H](C(C)C)C(=O)N2` [Tachyplesin I] (H-KWCFRVCYRGICYRRCR-NH2; disulfide 3-16, 7-12; N-terminus and C-terminus assumed): the MIC turned out to be 6.3 µg/mL (≈ 2.78 µM) in assay [2] (47 strains (85% of total 55 MRSA strains)), 12.5 µg/mL (≈ 5.52 µM) in assay [2] (one strain (2% of total 55 MRSA strains)) and 3.2 µg/mL (≈ 1.41 µM) in assay [2] (seven strains (13% of total 55 MRSA strains)). The growth result in assay [1] (TAC-I 0.4 μg/ml alone (antibiotic 0 μg/ml)), in assay [1] (TAC-I 0.8 μg/ml alone (antibiotic 0 μg/ml)) and in assay [1] (TAC-I 1.6 μg/ml alone (antibiotic 0 μg/ml)) was “+” in each case. For the same compound, the “MIC, single administration of the peptide” value in assay [1] is 3.2 µg/mL. Moreover, the “effect on membrane potential generated in the cytoplasmic membrane” value in assay [3] was “depolarized the membrane potential”.
As to `CC(C)[C@@H]1NC(=O)[C@H](CCCNC(=N)N)NC(=O)[C@H](Cc2ccccc2)NC(=O)[C@@H](NC(=O)[C@H](Cc2c[nH]c3ccccc23)NC(=O)[C@H](CCCNC(=N)N)NC(=O)[C@@H](N)CCCNC(=N)N)CSSC[C@@H](C(=O)N[C@@H](CCCNC(=N)N)C(N)=O)NC(=O)[C@H](CCCCN)NC(=O)[C@H](CCCNC(=N)N)NC(=O)[C@H](Cc2ccc(O)cc2)NC(=O)[C@@H]2CSSC[C@H](NC1=O)C(=O)N[C@@H](Cc1ccc(O)cc1)C(=O)N[C@@H](CCCCN)C(=O)NCC(=O)N[C@@H](Cc1ccccc1)C(=O)N2` [Polyphemusin II] (H-RRWCFRVCYKGFCYRKCR-NH2; disulfide 4-17, 8-13), the “MIC” value in assay [2] (setting [6]) turned out to be 6.3 µg/mL (≈ 2.6 µM). Besides, in assay [1], the “MIC, single administration of the peptide” value was found to be 6.3 µg/mL.
Regarding `Cc1nnc(SCC2=C(C(=O)O)N3C(=O)[C@@H](NC(=O)Cn4cnnn4)[C@H]3SC2)s1` [CEZ, Cefazolin], the growth entry was “+” in assay [1] (setting [4]), “+” in assay [1] (setting [5]) and “-” in assay [1] (antibiotic 40 μg/ml alone (TAC-I 0 μg/ml)).
As for `O=C(N[C@H](CO)[C@H](O)c1ccc([N+](=O)[O-])cc1)C(Cl)Cl` [CP, Chloramphenicol], the growth result in assay [1] (antibiotic 5 μg/ml alone (TAC-I 0 μg/ml)), in assay [1] (setting [4]) and in assay [1] (setting [5]) was “+” throughout.
